Among the data in patent publication US6613766B1, “Pentaaza-cyclopental[a]naphthalene derivatives as ligands for GABAa α5 receptors” (Merck Sharp & Dohme Ltd., priority 1998, dated 2003) are melting point values, retold here.

Each structure is given as a SMILES string.

For orientation: melting point means the temperature, or range, at which the solid turns liquid.

The molecule `Cc1cc(-c2nnc3c4cccnc4c(OCc4ncnn4C)nn23)no1` [Example 4, 3-(5-Methylisoxazol-3-yl)-5-(2-methyl-1,2,4-triazol-3-ylmethyloxy)-1,2,3a,4,6-pentaaza-cyclopenta[a]naphthalene] showed a melting point of 255 to 257 °C.
